Tests used:
Autotaxin [1] = biological target: T1, Autotaxin (Homo sapiens, UniProt Q13822); assay: Inhibition of autotoxin assessed as choline production after 60 to 180 mins using lysophosphatidylcholine as a substrate by colorimetric method
Autotaxin [2] = biological target: T1, Autotaxin; assay: Inhibition of autotoxin assessed as choline release from LPC using lysophosphatidylcholine as substrate

SMILES: CCCCCCCCCCCCCCCC(=O)N[C@@H](Cc1ccc(OCc2cc(C)c(OC)c(C)c2)cc1)[C@@H](O)CP(=O)(O)O
- Ki (Autotaxin [1]): 1.6 µM

SMILES: CCCCCCCCCCCCCCCC(=O)N[C@@H](Cc1ccc(OCc2ncc(C)c(OC)c2C)cc1)[C@@H](O)CP(=O)(O)O
- Ki (Autotaxin [1]): 1 µM

SMILES: CCCCCCCCCCCCCCCC(=O)N[C@@H](Cc1ccc(OCc2ncc(C)c(OC)c2C)cc1)[C@H](O)CP(=O)(O)O
- Ki (Autotaxin [1]): 3.9 µM

SMILES: CCCCCCCCCCCCCCCC(=O)N[C@@H](Cc1ccc(OCc2ccccc2)cc1)[C@@H](O)CP(=O)(O)O
- Ki (Autotaxin [1]): 27 µM

SMILES: CCCCCCCCCCCCCCCC(=O)N[C@@H](Cc1ccc(OCc2ccccc2)cc1)[C@H](O)CP(=O)(O)O
- Ki (Autotaxin [1]): 83 µM

SMILES: CCCCCCCCCCCCCCCC(=O)N[C@@H](Cc1ccc(OCc2ccccn2)cc1)[C@@H](O)CP(=O)(O)O
- Ki (Autotaxin [1]): 4.4 µM

SMILES: CCCCCCCCCCCCCCCC(=O)N[C@@H](Cc1ccc(OCc2ccccn2)cc1)[C@H](O)CP(=O)(O)O
- Ki (Autotaxin [1]): 11 µM

SMILES: CCCCCCCCCCCCCCCC(=O)N[C@@H](Cc1ccc(OCc2cc(OC)ccn2)cc1)[C@@H](O)CP(=O)(O)O
- Ki (Autotaxin [1]): 1.5 µM

SMILES: CCCCCCCCCCCCCCCC(=O)N[C@@H](Cc1ccc(OCc2cc(OC)ccn2)cc1)[C@H](O)CP(=O)(O)O
- Ki (Autotaxin [1]): 3.5 µM

SMILES: CCCCCCCCCCCCCCCC(=O)N[C@@H](Cc1ccc(OCc2ncc(C)cc2C)cc1)[C@@H](O)CP(=O)(O)O
- Ki (Autotaxin [1]): 3.9 µM

SMILES: CCCCCCCCCCCCCCCC(=O)N[C@@H](Cc1ccc(OCc2ncc(C)cc2C)cc1)[C@H](O)CP(=O)(O)O
- Ki (Autotaxin [1]): 399 µM

SMILES: CCCCCCCCCCCCCCCC(=O)N[C@@H](Cc1ccc(OCc2ncc(C)c(OCC)c2C)cc1)[C@@H](O)CP(=O)(O)O
- Ki (Autotaxin [1]): 4.7 µM

SMILES: CCCCCCCCCCCCCCCC(=O)N[C@@H](Cc1ccc(OCc2ncc(C)c(OC(C)C)c2C)cc1)[C@H](O)CP(=O)(O)O
- Ki (Autotaxin [1]): 11.1 µM

SMILES: CCCCCCCCCCCCCCCC(=O)N[C@@H](Cc1ccc(OCc2ncc(C)c(OCC)c2C)cc1)[C@H](O)CP(=O)(O)O
- Ki (Autotaxin [1]): 6.2 µM

SMILES: CCCCCCCCCCCCCCCC(=O)N[C@@H](Cc1ccc(OCc2ncc(C)c(OC(C)C)c2C)cc1)[C@@H](O)CP(=O)(O)O
- Ki (Autotaxin [1]): 8.8 µM

SMILES: CCCCCCCCCCCCCCCC(=O)N[C@@H](Cc1ccc(OCc2cc(OCC(F)(F)F)ccn2)cc1)[C@@H](O)CP(=O)(O)O
- Ki (Autotaxin [1]): 11.6 µM

SMILES: CCCCCCCCCCCCCCCC(=O)N[C@@H](Cc1ccc(OCc2cc(OCC(F)(F)F)ccn2)cc1)[C@H](O)CP(=O)(O)O
- Ki (Autotaxin [1]): 22.5 µM

SMILES: CCCCCCCCCCCCCCCC(=O)N[C@@H](Cc1ccc(OCc2ccc(C)cc2C)cc1)[C@@H](O)CP(=O)(O)O
- Ki (Autotaxin [1]): 1.8 µM

SMILES: CCCCCCCCCCCCCCCC(=O)N[C@@H](Cc1ccc(OCc2ccc(C)cc2C)cc1)[C@H](O)CP(=O)(O)O
- Ki (Autotaxin [1]): 4.8 µM

SMILES: CCCCCCCCCCCCCCCC(=O)N[C@@H](Cc1ccc(OCc2ccc(Cl)cc2Cl)cc1)[C@@H](O)CP(=O)(O)O
- Ki (Autotaxin [1]): 584 µM

SMILES: CCCCCCCCCCCCCCCC(=O)N[C@@H](Cc1ccc(OCc2ccc(Cl)cc2Cl)cc1)[C@H](O)CP(=O)(O)O
- Ki (Autotaxin [1]): 1060 µM

SMILES: CCCCCCCCCCCCCCCC(=O)N[C@@H](Cc1ccc(OCc2cc(C)c(OC)c(C)c2)cc1)[C@H](O)CP(=O)(O)O
- Ki (Autotaxin [1]): 5.3 µM

SMILES: CCCCCCCCCCCCCCCC(=O)N[C@@H](Cc1ccc(OCc2cc(C)cc(C)c2)cc1)[C@@H](O)CP(=O)(O)O
- Ki (Autotaxin [1]): 88.9 µM

SMILES: CCCCCCCCCCCCCCCC(=O)N[C@@H](Cc1ccc(OCc2cc(C)cc(C)c2)cc1)[C@H](O)CP(=O)(O)O
- Ki (Autotaxin [1]): 217 µM

SMILES: CCCCCCCCCCCCCCCC(=O)N[C@@H](Cc1ccc(OCc2ccc(OC)c(C)c2)cc1)[C@@H](O)CP(=O)(O)O
- Ki (Autotaxin [1]): 4.3 µM

SMILES: CCCCCCCCCCCCCCCC(=O)N[C@@H](Cc1ccc(OCc2ccc(OC)c(C)c2)cc1)[C@H](O)CP(=O)(O)O
- Ki (Autotaxin [1]): 26.5 µM

SMILES: O=C1S/C(=C\c2cccc(B(O)O)c2)C(=O)N1Cc1ccc(F)cc1
- Ki (Autotaxin [2]): 0.094 µM

SMILES: O=C(O)c1cccc(/C=C2\SC(=O)N(Cc3ccc(F)cc3)C2=O)c1
- Ki (Autotaxin [2]): 0.187 µM

SMILES: CCCCCCCCCCCCCC(=O)Nc1ccc(CP(=O)(O)O)cc1
- Ki (Autotaxin [2]): 0.367 µM

SMILES: CCCCCCCCCCCCCCCCCC(=O)OC[C@@H](O)CC(Br)P(=O)(O)O (stereo not given in full)
- Ki (Autotaxin [2]): 40.1 µM

Reference: ChEMBL document CHEMBL1629508, “Synthesis and structure-activity relationships of tyrosine-based inhibitors of autotaxin (ATX)” (Bioorg Med Chem Lett, 2010)
